Measurements as given in publication PMC9669016, “First-in-human phase Ia study of the PI3Kα inhibitor CYH33 in patients with solid tumors” (Nature Communications, 2022).
≈ marks a conversion by molar mass, not a printed value. Like-named read-outs stand apart in the source and are kept apart here.

Tests used:
mice bone marrow = tested on: mice bone marrow; set-up: method as in Investigator's Brochure (IB) 12; details: ref Investigator's Brochure (IB) 12; cited from earlier work
[1] = tested on: more than 300 other kinases, including PIKK family; set-up: method as in Investigator's Brochure (IB) 12; details: ref Investigator's Brochure (IB) 12; cited from earlier work
[2] = tested on: KYSE510 human esophageal cancer xenograft; set-up: method as in Investigator's Brochure (IB) 12; details: 12.5 mg/kg oral for 21 days; ref Investigator's Brochure (IB) 12; cited from earlier work
[3] = tested on: phosphorylation of Akt and rpS6; set-up: method as in Investigator's Brochure (IB) 12; details: ref Investigator's Brochure (IB) 12, cited from earlier work
[4] = set-up: method as in Investigator's Brochure (IB) 12; details: human, without concentration dependency; ref Investigator's Brochure (IB) 12; cited from earlier work
[5] = set-up: method as in Investigator's Brochure (IB) 12; details: rats, without concentration dependency; ref Investigator's Brochure (IB) 12; cited from earlier work
Beagle dogs = tested on: Beagle dogs; set-up: method as in Investigator's Brochure (IB) 12; details: species wording unclear (Beagle dogs / rats); ref Investigator's Brochure (IB) 12; cited from earlier work
[6] = set-up: method as in Study Protocol CYH33-101 Table 2; details: ref Study Protocol CYH33-101 Table 2, cited from earlier work
SD rats = experiment: Long-term toxicity assay, SD rats; format: in vivo; details: 3 mg/kg x 0.162 x 60 kg
Description: Shanghai Haihe Biopharma Co., Ltd. Protocol No.: CYH33-101, Version: 5.0 […]
in hepatocytes was sign ificantly higher in dogs than in other species. The extent of hydrolytic metabolism of amide bonds in monk ey hepatocytes was low, but the extent of oxidative metabolism (M5, M6) was higher than that in other animal species. Oxidative metabolites of CYH33 were not detected in hum an hepatocytes, so th e metabolic effect of oxidative metabolic enzymes in human liver on C YH33 was not evaluated. The liver and intestine homogenates of dogs were collected, confirming that the amide hydrolysis of CYH33 was mainly catalyzed by carboxylesterase in liver. […]
transport across Caco-2 cells in the concentration range of 2.00 - 10.0 µM.
For detailed results of nonclinical pharmacokinetic and product metabol ism studies of […]
1.2.3 Results of Nonclinical Toxicological Study […]
tidal volume (TV), respiratory volume (MV) per minute and frequency of respiration (Rf) […]
on the central n ervous system (CNS) noticed.
The acute toxicity assay confirmed that the MTD was ≥ 600 mg/kg in SD rats, and the maximum tolerated dose (MTD) was >120 mg/kg in beagle dogs. The long-term toxicity […]
were greater than those in males, and the highest non-severely toxic dose (HNSTD) was 8 mg/kg in males and 3 mg/kg in females. […]

[7] = set-up: method as in Study Protocol CYH33-101 Table 2; details: ref Study Protocol CYH33-101 Table 2; cited from earlier work
CYP3A4 = tested on: CYP3A4; set-up: method as in Investigator's Brochure (IB) 12; details: up to 100 µM; ref Investigator's Brochure (IB) 12; cited from earlier work

SMILES: COC(=O)Nc1cc(C(F)(F)F)c(-c2nc(N3CCOCC3)c3cc(CN4CCN(S(C)(=O)=O)CC4)cn3n2)cn1 [CYH33, methyl (5-(6-((4-(methylsulfonyl)piperazin-1-yl)methyl)−4-morpholinopyrrolo[2,1-f][1,2,4]triazin-2-yl)−4-(trifluoromethyl)pyridin-2-yl)carbamate]
- mice bone marrow micronucleus test result (mice bone marrow): negative
- effects on more than 300 other kinases, including other PIKK family members [1]: slight
- T/C ratio [2]: approximately 30%
- time of peak concentration in tumor tissues ([3]; single dose 12.5, 25, 50 mg/kg): 2 h
- phosphorylation of Akt and rpS6 in tumor tissues ([3]; single dose, at 0.25 h (25, 50 mg/kg) or 0.5 h (12.5 mg/kg), recovered after 8 h): down-regulate
- plasma protein binding (PPB) [4]: 94.9%
- plasma protein binding (PPB) [5]: 97.5%
- arrhythmia, ECG, blood pressure and body temperature parameters (Beagle dogs): no drug-related arrhythmia or changes
- Solubility ([6]; in H2O): 1210 µg/mL (≈ 2020 µM)
- Solubility, pH dependent ([6]; pH <3): High solubility at pH <3
- human equivalent dose (HED) of long-term HNSTD of rats (females), critical toxic dose (SD rats): about 30 mg
- log P [7]: 2.89
- inhibition of CYP3A4 (CYP3A4): did not inhibit
